“And” between values parts separate entries of the source, which are not always exact repeats. Equal entries are not always repeated. ± gives the expanded uncertainty stated by the source.
Settings: Liquid, Vibrating tube method

CCCCCCC(=O)OCC(COC(=O)CCCCCC)(COC(=O)CCCCCC)COC(=O)CCCCCC [pentaerythritol tetraheptanoate]
Settings	mass density
343.14 K, 22987 kPa	957 ± 1.2 kg/m3
343.14 K, 23023 kPa	956.9 ± 1.2 kg/m3
343.14 K, 23067 kPa	956.9 ± 1.2 kg/m3
343.14 K, 23104 kPa	956.9 ± 1.2 kg/m3
343.14 K, 23148 kPa	957 ± 1.2 kg/m3
343.14 K, 23186 kPa	957 ± 1.2 kg/m3
343.14 K, 23224 kPa	956.9 ± 1.2 kg/m3
343.14 K, 23269 kPa	957.1 ± 1.2 kg/m3
343.14 K, 23308 kPa	957.1 ± 1.2 kg/m3
343.14 K, 23346 kPa	957.1 ± 1.2 kg/m3
343.14 K, 23393 kPa	957.2 ± 1.2 kg/m3
343.14 K, 23433 kPa	957.2 ± 1.2 kg/m3
343.14 K, 23473 kPa	957.2 ± 1.2 kg/m3
343.14 K, 23512 kPa	957.2 ± 1.2 kg/m3
343.14 K, 23551 kPa	957.3 ± 1.2 kg/m3
343.14 K, 23582 kPa	957.3 ± 1.2 kg/m3
343.14 K, 23619 kPa	957.3 ± 1.2 kg/m3
343.14 K, 23650 kPa	957.2 ± 1.2 kg/m3
343.14 K, 23719 kPa	957.3 ± 1.2 kg/m3
343.14 K, 23782 kPa	957.3 ± 1.2 kg/m3
343.14 K, 23820 kPa	957.3 ± 1.2 kg/m3
343.14 K, 23852 kPa	957.4 ± 1.2 kg/m3
343.14 K, 23887 kPa	957.4 ± 1.2 kg/m3
343.14 K, 23919 kPa	957.4 ± 1.2 kg/m3
343.14 K, 23957 kPa	957.4 ± 1.2 kg/m3
343.14 K, 23990 kPa	957.4 ± 1.2 kg/m3
343.14 K, 24022 kPa	957.6 ± 1.2 kg/m3
343.14 K, 24061 kPa	957.7 ± 1.2 kg/m3
343.14 K, 24094 kPa	957.5 ± 1.2 kg/m3
343.14 K, 24160 kPa	957.5 ± 1.2 kg/m3
343.14 K, 24588 kPa	957.9 ± 1.2 kg/m3
343.14 K, 24654 kPa	957.9 ± 1.2 kg/m3
343.14 K, 24695 kPa	958 ± 1.2 kg/m3
343.14 K, 24730 kPa	958.1 ± 1.2 kg/m3
343.14 K, 24765 kPa	958 ± 1.2 kg/m3
343.14 K, 24806 kPa	958 ± 1.2 kg/m3
343.14 K, 24840 kPa	958.1 ± 1.2 kg/m3
343.14 K, 25030 kPa	958.1 ± 1.2 kg/m3
343.14 K, 25067 kPa	958.2 ± 1.2 kg/m3
343.14 K, 25103 kPa	958.2 ± 1.2 kg/m3
343.14 K, 25183 kPa	958.1 ± 1.2 kg/m3
343.14 K, 25215 kPa	958.2 ± 1.2 kg/m3
343.14 K, 25436 kPa	958.5 ± 1.2 kg/m3
343.14 K, 25465 kPa	958.5 ± 1.2 kg/m3
343.14 K, 25501 kPa	958.5 ± 1.2 kg/m3
343.14 K, 26973 kPa	959.4 ± 1.2 kg/m3
343.14 K, 27040 kPa	959.4 ± 1.2 kg/m3
343.14 K, 27491 kPa	959.6 ± 1.2 kg/m3
343.14 K, 27527 kPa	959.7 ± 1.2 kg/m3
343.14 K, 27558 kPa	959.9 ± 1.2 kg/m3
343.14 K, 27645 kPa	960 ± 1.2 kg/m3
343.14 K, 27672 kPa	959.9 ± 1.2 kg/m3
343.14 K, 27705 kPa	959.9 ± 1.2 kg/m3
343.14 K, 27733 kPa	959.9 ± 1.2 kg/m3
343.14 K, 27761 kPa	959.9 ± 1.2 kg/m3
343.14 K, 27793 kPa	959.9 ± 1.2 kg/m3
343.14 K, 27821 kPa	959.9 ± 1.2 kg/m3
343.14 K, 27849 kPa	960 ± 1.2 kg/m3
343.14 K, 27937 kPa	960.1 ± 1.2 kg/m3
343.14 K, 27971 kPa	960.1 ± 1.2 kg/m3
343.14 K, 27998 kPa	960 ± 1.2 kg/m3
343.14 K, 28026 kPa	960 ± 1.2 kg/m3
343.14 K, 28060 kPa	960 ± 1.2 kg/m3
343.14 K, 28670 kPa	960.5 ± 1.2 kg/m3
343.14 K, 28700 kPa	960.4 ± 1.2 kg/m3
343.14 K, 29403 kPa	960.9 ± 1.2 kg/m3
343.14 K, 33157 kPa	963.2 ± 1.2 kg/m3
343.14 K, 33197 kPa	963.3 ± 1.2 kg/m3
343.14 K, 33238 kPa	963.2 ± 1.2 kg/m3
343.14 K, 33290 kPa	963.2 ± 1.2 kg/m3
343.14 K, 33322 kPa	963.3 ± 1.2 kg/m3
343.14 K, 33371 kPa	963.3 ± 1.2 kg/m3
343.14 K, 33412 kPa	963.3 ± 1.2 kg/m3
343.14 K, 33461 kPa	963.4 ± 1.2 kg/m3
343.14 K, 33503 kPa	963.4 ± 1.2 kg/m3
343.14 K, 33545 kPa	963.5 ± 1.2 kg/m3
343.14 K, 33586 kPa	963.4 ± 1.2 kg/m3
343.14 K, 33637 kPa	963.5 ± 1.2 kg/m3
343.14 K, 33678 kPa	963.7 ± 1.2 kg/m3
343.14 K, 33906 kPa	963.6 ± 1.2 kg/m3
343.15 K, 100.4 kPa	940.6 ± 1.1 kg/m3
343.15 K, 100.5 kPa	940.6 ± 1.1 kg/m3
343.15 K, 100.7 kPa	940.6 ± 1.1 kg/m3
343.15 K, 100.9 kPa	940.6 ± 1.1 kg/m3
343.15 K, 102.6 kPa	940.6 ± 1.1 kg/m3
343.15 K, 106.3 kPa	940.6 ± 1.1 kg/m3
343.15 K, 108.5 kPa	940.6 ± 1.1 kg/m3
343.15 K, 111.8 kPa	940.7 ± 1.1 kg/m3
343.15 K, 116.3 kPa	940.7 ± 1.1 kg/m3
343.15 K, 119.8 kPa	940.6 ± 1.1 kg/m3
343.15 K, 124 kPa	940.5 ± 1.1 kg/m3
343.15 K, 126.8 kPa	940.6 ± 1.1 kg/m3
343.15 K, 129.2 kPa	940.5 ± 1.2 kg/m3
343.15 K, 131.6 kPa	940.6 ± 1.1 kg/m3
343.15 K, 133.4 kPa	940.7 ± 1.1 kg/m3
343.15 K, 134.8 kPa	940.8 ± 1.1 kg/m3
343.15 K, 135.3 kPa	940.7 ± 1.1 kg/m3
343.15 K, 136.2 kPa	940.6 ± 1.1 kg/m3
343.15 K, 136.7 kPa	940.6 ± 1.1 kg/m3
343.15 K, 137.7 kPa	940.7 ± 1.1 kg/m3
343.15 K, 138.6 kPa	940.7 ± 1.1 kg/m3
343.15 K, 139.6 kPa	940.7 ± 1.1 kg/m3
343.15 K, 140.5 kPa	940.6 ± 1.1 kg/m3
343.15 K, 140.7 kPa	940.8 ± 1.1 kg/m3 and 940.7 ± 1.1 kg/m3
343.15 K, 140.8 kPa	940.6 ± 1.1 kg/m3
343.15 K, 141 kPa	940.7 ± 1.1 kg/m3
343.15 K, 141.2 kPa	940.6 ± 1.1 kg/m3
343.15 K, 141.5 kPa	940.6 ± 1.1 kg/m3
343.15 K, 141.9 kPa	940.7 ± 1.1 kg/m3
343.15 K, 142.4 kPa	940.7 ± 1.1 kg/m3
343.15 K, 142.9 kPa	940.6 ± 1.1 kg/m3
343.15 K, 143.1 kPa	940.6 ± 1.1 kg/m3 and 940.7 ± 1.1 kg/m3

From the NIST ThermoML archive (doi:10.1021/je060271a)
